Measured values: patent publication US20240197772A1, “COMPOSITIONS COMPRISING ONE OR MORE HMO'S WITH A CORE OF LacNAc-Lac” (FrieslandCampina Nederland B.V., priority 2020, published 2024)

How the values were obtained:
CD36 = test: PCR gene expression of CD36 in PBMCs incubated with single HMOs; format: cell-based, human; conditions: PBMCs of 3 donors, 0.5 mg/ml HMO, 5 h, average, control set as 1, GAPDH reference gene
Protocol: (§1) The effect of single HMOs on the expression of genes relevant to cholesterol metabolism and atherogenesis was tested using Peripheral Blood Mononuclear Cells (PBMCs) from 3 donors and incubated those cells with 0.5 g/l of single HMOs. The level of expression was determined using PCR.
(§2) Peripheral blood mononuclear cells (PBMC's) were isolated from a buffy coat using Sepmate tubes. The cells were diluted to a concentration of 1*10^7 cells per ml. The PBMC's were seeded in 6 wells plates and treated with 0.5 g/l of each HMO in PBMC culturing medium for 5 h prior to RNA isolation. Each HMO was mixed with 100 ug/ml final concentration of Polymyxin B to ensure neutralization of possible endotoxin contamination of HMOs, while equal amounts of Polymyxin B were used as a control.
(§3) 500 ng RNA, isolated from PBMCs, was translated into cDNA, using the quantitect reverse transcription kit (Qiagen). Primersets for the regulated genes (shown in the table below), were ordered at Qiagen (Quantitect primer assays). From each condition (PBMCs of 3 donors in control situation and after exposure towards HMOs (5 hrs)) cDNA (100×, 10× for genes which were low expressed) was amplified using the different primersets.
(§4) GAPDH (Glyceraldehyde-3-Phosphate Dehydrogenase) was used as a reference gene to quantify changes of gene expression between the control and the HMO-treated cells.
(§5) • GAPDH: Hs_GAPDH_vb.1_SG QuantiTect Primer Assay • IL19: Hs_IL19_1_SG QuantiTect Primer Assay • CD36: Hs_CD36_3_SG QuantiTect Primer Assay • GPR43/FFAR2: Hs_FFAR2_2_SG QuantiTect Primer Assay • ABCA1: Hs_ABCA1_1_SG QuantiTect Primer Assay
(§6) 19 commercially available HMO's that are present in human milk were tested. All gene expression values were calibrated to the Polymyxin B control of each respective donor (set arbitrary as 1). Average values for each gene compared to the Polymyxin B control are shown below (values above 1.5 fold or below 0.5 fold were considered physiologically relevant).

IL19 = test: PCR gene expression of IL19 in PBMCs incubated with single HMOs; format: cell-based, human; conditions: PBMCs of 3 donors, 0.5 mg/ml HMO, 5 h, average, control set as 1, GAPDH reference gene
Protocol: as §1, §2, §3, §4, §5, §6

GPR43/FFAR2 = test: PCR gene expression of GPR43/FFAR2 in PBMCs incubated with single HMOs; format: cell-based, human; conditions: PBMCs of 3 donors, 0.5 mg/ml HMO, 5 h, average, control set as 1, GAPDH reference gene
Protocol: as §1, §2, §3, §4, §5, §6

Primary human adipocytes = test: Adipocyte glucose uptake assay (3H-2-deoxyglucose); format: cell-based; conditions: 2 hours incubation; compared with vehicle control DMSO and insulin 100 nM positive control; LPS 2 ng/mL
Description: • 1. Subcutaneous preadipocytes from Zen-Bio Inc were thawed and plated into appropriate experimental plate format. • 2. Upon thawing cells, culturing followed differentiation schedule below: • Day Treatment • 1 Plate cells in PM-1 • 2 Differentiate cells using DM-2 • 9 Feed cells Maintenance medium AM-1 • 16 Assay cells for lipid accumulation, lipolysis, glucose uptake or RNAseq. • 1. Primary human adipocytes were differentiated in 96-well isoplates • 2. At 14 days post differentiation, the cells were treated with glucose uptake starvation media (Zen-Bio Inc) overnight. • 3. The next morning, the cells were washed with assay buffer and the cells were treated with compounds in glucose assay buffer containing ^3H-2-deoxyglucose cocktail and the cells were incubated at 37° C., 5% CO2 and allowed to incubate for 2 hours. • 4. After 2 hours, the cells were washed with PBS, lysed, and mixed with Optiphase “Supermix” scintillation fluid (Zen-Bio Inc). The Counts Per Minute (CPM) of each well measured. • Vehicle control: DMSO (control) • Zen Bio Insulin positive control: 100 nM (insulin) • Control for possible endotoxin contamination of pHMOs: […]

CD14+ CD36+ PBMC's = test: Cholesterol uptake (Dil oxLDL) by FACS in PBMCs; format: cell-based; conditions: 0.5 mg/ml, 4 hrs pre-incubation then 10 ug/ml Dil oxLDL 1 hour; gated on CD14+ CD36+ cells; FIG. 1
ABCA1 = test: PCR gene expression of ABCA1 in PBMCs incubated with single HMOs; format: cell-based, human; conditions: PBMCs of 3 donors, 0.5 mg/ml HMO, 5 h, average, control set as 1, GAPDH reference gene
Protocol: as §1, §2, §3, §4, §5, §6
2′FL was included too as it was expected that the most abundant HMO in human milk would show changes in any of these systems. […]

| Molecule | CD36 gene expression relative to Polymyxin B control (CD36) [fold] | IL19 gene expression relative to Polymyxin B control (IL19) [fold] | FFAR2 gene expression relative to Polymyxin B control (GPR43/FFAR2) [fold] | glucose uptake (CPM of 3H-2-deoxyglucose) (Primary human adipocytes) | cholesterol level in the cell, % of original value (MFI vs no glycan control with Dil oxLDL) (CD14+ CD36+ PBMC's) | ABCA1 gene expression relative to Polymyxin B control (ABCA1) [fold] | CD36 gene expression relative to Polymyxin B control (CD36; listed as LNF-III) |
| --- | --- | --- | --- | --- | --- | --- | --- |
| 3-Fucosyllactose [3FL] | 0.98 | 1.06 | 1.18 | – | – | – | – |
| CC(=O)N[C@H]1[C@H](O[C@H]2[C@@H](O)[C@@H](CO)O[C@@H](O[C@H]3[C@H](O)[C@@H](O)C(O)O[C@@H]3CO)[C@@H]2O)O[C@H](CO)[C@@H](O[C@@H]2O[C@H](CO)[C@H](O)[C@H](O)[C@H]2O)[C@@H]1O (mixture of isomers) [LNnT, lacto-N-neotetraose] | 0.93 | 0.93 | 0.93 | – | – | – | – |
| C[C@@H]1O[C@@H](O[C@H]2[C@H](O[C@H]3[C@H](O)[C@@H](O)C(O)O[C@@H]3CO)O[C@H](CO)[C@H](O)[C@@H]2O)[C@@H](O)[C@H](O)[C@@H]1O (stereo partly drawn) [2′FL, 2′-fucosyllactose] | 0.67 | – | 0.72 | not significantly different from the vehicle control | about 91% | 1.09 | – |
| CC(=O)N[C@H]1[C@H]([C@H](O)[C@H](O)CO)O[C@@](O[C@H]2[C@@H](O)[C@@H](CO)O[C@@H](O[C@H]3[C@H](O[C@@H]4O[C@@H](C)[C@@H](O)[C@@H](O)[C@@H]4O)[C@@H](O)C(O)O[C@@H]3CO)[C@@H]2O)(C(=O)O)C[C@@H]1O (stereo partly drawn) [3S3FL] | 0.90 | 0.94 | 1.03 | – | – | – | – |
| CC(=O)N[C@H]1[C@H]([C@H](O)[C@H](O)CO)O[C@@](O[C@H]2[C@@H](O)[C@@H](CO)O[C@@H](O[C@H]3[C@H](O)[C@@H](O)C(O)O[C@@H]3CO)[C@@H]2O)(C(=O)O)C[C@@H]1O (stereo partly drawn) [3′SL, 3′-Sialyllactose] | 0.87 | 1.24 | 1.25 | – | – | – | – |
| CC(=O)N[C@H]1[C@H]([C@H](O)[C@H](O)CO)O[C@@](OC[C@H]2O[C@@H](O[C@H]3[C@H](O)[C@@H](O)[C@H](O)O[C@@H]3CO)[C@H](O)[C@@H](O)[C@H]2O)(C(=O)O)C[C@@H]1O [6′SL, 6′-Sialyllactose] | 0.93 | 1.05 | 1.83 | – | – | – | – |
| CC(=O)N[C@H]1[C@H](O[C@H]2[C@@H](O)[C@@H](CO)O[C@@H](O[C@@H]([C@H](O)[C@@H](O)C=O)[C@H](O)CO)[C@@H]2O)O[C@H](CO[C@]2(C(=O)O)C[C@H](O)[C@@H](NC(C)=O)[C@H]([C@H](O)[C@H](O)CO)O2)[C@@H](O)[C@@H]1O[C@@H]1O[C@H](CO)[C@H](O)[C@H](O[C@]2(C(=O)O)C[C@H](O)[C@@H](NC(C)=O)[C@H]([C@H](O)[C@H](O)CO)O2)[C@H]1O [DSLNT, disialyllacto-N-tetraose] | – | – | – | – | – | 2.02 | – |
| C[C@@H]1O[C@@H](O[C@H]2[C@H](O[C@H]3[C@H](O[C@@H]4O[C@@H](C)[C@@H](O)[C@@H](O)[C@@H]4O)[C@@H](O)C(O)O[C@@H]3CO)O[C@H](CO)[C@H](O)[C@@H]2O)[C@@H](O)[C@H](O)[C@@H]1O (stereo partly drawn) [LDFT] | 1.00 | 0.75 | 1.64 | – | – | – | – |
| CC(=O)N[C@H]1[C@H](O[C@H]2[C@@H](O)[C@@H](CO)O[C@@H](O[C@H]3[C@H](O)[C@@H](O)C(O)O[C@@H]3CO)[C@@H]2O)O[C@H](CO)[C@@H](O)[C@@H]1O[C@@H]1O[C@H](CO)[C@H](O)[C@H](O)[C@H]1O (stereo partly drawn) [LNT, lacto-N-tetraose] | 0.93 | 0.93 | 0.93 | – | – | – | – |
| CC(=O)N[C@H]1[C@H](O[C@H]2[C@@H](O)[C@@H](CO)O[C@@H](O[C@@H]([C@H](O)[C@@H](O)C=O)[C@H](O)CO)[C@@H]2O)O[C@H](CO[C@]2(C(=O)O)C[C@H](O)[C@@H](NC(C)=O)[C@H]([C@H](O)[C@H](O)CO)O2)[C@@H](O)[C@@H]1O[C@@H]1O[C@H](CO)[C@H](O)[C@H](O)[C@H]1O [LSTb, sialyllacto-N-tetraose b] | 0.75 | 1.31 | – | – | – | – | – |
| CC(=O)N[C@H]1[C@H](O[C@H]2[C@@H](O)[C@@H](CO)O[C@@H](O[C@H]3[C@H](O)[C@@H](O)C(O)O[C@@H]3CO)[C@@H]2O)O[C@H](CO)[C@@H](O[C@@H]2O[C@H](CO[C@]3(C(=O)O)C[C@H](O)[C@@H](NC(C)=O)[C@H]([C@H](O)[C@H](O)CO)O3)[C@H](O)[C@H](O)[C@H]2O)[C@@H]1O (stereo partly drawn) [LSTc] | 0.90 | 1.25 | 1.02 | – | – | – | – |
| LNFP-I | 0.85 | 1.89 | 0.86 | – | – | – | – |
| Lacto-N-fucopentaose III [LNFP-III] | 0.08 | – | – | – | – | – | reduce |
| Lipopolysaccharide [LPS] | – | – | – | did not upregulate glucose uptake at all | – | – | – |
| lactodifucoheaxose II [LNDFH-II] | – | – | – | – | – | 2.16 | – |
